Data as given in patent publication US8865763B2, “Methods and compositions for altering cell function” (Alltech, Inc., priority 2005, dated 2014).

Assays:
[1] = tested on: SelR (Selenoprotein X1); assay: Microarray gene expression, mouse intestine: SelR; format: in vivo; settings: diet 1 ppm Se, vs selenium deficient
Excerpt: (§1) Animal Care. Male C57BL/6J mice were housed singly and started on the experimental diets described below immediately after weaning (21 days of age). The mice were maintained in the Shared Aging Rodent Facility at the William S. Middleton Memorial Veterans Administration Medical Center (Madison, Wis.). Temperature and humidity were maintained at constant levels. Room light was controlled to provide 12-hr cycles of light and dark.
(§2) Experimental diets were created by Harlan Teklad (Madison, Wis.). Selenium content of the diets was determined by Covance Inc. (Madison, Wis.). Five (5) animals were included in each of the following treatment groups: a diet deficient in selenium (SD); a diet supplemented with selenomethionine (SM, obtained from Sigma, St. Louis, Mo.) such that the final selenium content of the diet was one (1) part per million; a diet supplemented with sodium selenite (SS, Sigma) such that the final concentration of selenium in this diet was one (1) part per million; or a diet supplemented with the yeast selenium SEL-PLEX (SP, Alltech, Lexington, Ky.), such that the final concentration of selenium in this diet was one (1) part per million. SEL-PLEX. […]
(§3) Tissue sample preparation and microarray analysis. […] For intestinal expression studies, the intestine was flushed twice with saline solution and small intestine was measured and divided in three equal segments. […]

[2] = tested on: Glutathione Peroxidase 3; assay: Microarray gene expression, mouse intestine: Glutathione Peroxidase 3; format: in vivo; settings: diet 1 ppm Se, vs selenium deficient, all p < 0.01
Excerpt: as §1, §2, §3

[3] = tested on: selenoprotein N1 (Sepn1); assay: Microarray gene expression, mouse intestine: Sepn1; format: in vivo; settings: diet 1 ppm Se, vs selenium deficient
Excerpt: as §1, §2, §3

[4] = tested on: Glutathione Peroxidase 1; assay: Microarray gene expression, mouse intestine: Glutathione Peroxidase 1; format: in vivo; settings: diet 1 ppm Se, vs selenium deficient, all p < 0.01
Excerpt: as §1, §2, §3

[5] = tested on: sprouty homolog 2 gene (Spry2); assay: Microarray gene expression, mouse intestine: Spry2; format: in vivo; settings: diet 1 ppm Se, vs Se-deficient controls
Excerpt: as §1, §2, §3

[6] = tested on: Neurogenin 3 (Neurog3); assay: Microarray gene expression, mouse intestine: Neurog3; format: in vivo; settings: diet 1 ppm Se, vs selenium deficient
Excerpt: as §1, §2, §3

[7] = tested on: Complement component 1, q subcomponent, gamma polypeptide, C1qg; assay: Microarray gene expression, mouse cerebral cortex: C1qg; format: in vivo; settings: diet 1 ppm Se, vs selenium deficient, * p<0.01
Excerpt: as §1, §2, §3

[8] = Body weight of mice on selenium diets; format: in vivo, mouse; settings: mouse, in vivo
Excerpt: as §1
Experimental diets were created by Harlan Teklad (Madison, Wis.). Selenium content of the diets was determined by Covance Inc. (Madison, Wis.). […]
Thus, it was an object of the present invention to determine whether compositions and methods of the present invention could alter the expression levels (e.g., mRNA levels) of various genes. One group of genes analyzed were genes classically associated with selenium. As described above, the expression levels of genes were analyzed between mice with and without dietary selenium, or, between mice fed different sources of selenium) (See, e.g., Table 1, below).

[9] = tested on: LIM homeobox protein 8 gene (Lhx8); assay: Microarray gene expression, mouse intestine: Lhx8; format: in vivo; settings: diet 1 ppm Se, vs selenium deficient
Excerpt: as §1, §2, §3

[10] = tested on: type II iodothyronine deiodinase (Dio2); assay: Microarray gene expression, mouse intestine: Dio2; format: in vivo; settings: diet 1 ppm Se, vs selenium deficient
Excerpt: as §1, §2, §3

[11] = tested on: Type 1 iodothyronine deiodinase; assay: Microarray gene expression, mouse intestine: Type 1 iodothyronine deiodinase; format: in vivo; settings: diet 1 ppm Se, vs selenium deficient
Excerpt: as §1, §2, §3

[12] = tested on: Selenoprotein W (SelW); assay: Microarray gene expression, mouse intestine: SelW; format: in vivo; settings: diet 1 ppm Se, vs selenium deficient
Excerpt: as §1, §2, §3

[13] = tested on: transforming growth factor beta 2 (TGF-β2); assay: Microarray gene expression, mouse intestine: TGF-β2; format: in vivo; settings: diet 1 ppm Se, vs controls
Excerpt: as §1, §2, §3

[14] = tested on: Glyoxalase 1 (Glo1); assay: Microarray gene expression, mouse intestine: Glo1; format: in vivo; settings: diet 1 ppm Se, vs selenium deficient
Excerpt: as §1, §2, §3

[15] = tested on: Growth arrest and DNA-damage-inducible 45 gamma (Gadd45g); assay: Microarray gene expression, mouse intestine: Gadd45g; format: in vivo; settings: diet 1 ppm Se, vs selenium deficient, negative = down
Excerpt: as §1
Experimental diets were created by Harlan Teklad (Madison, Wis.). Selenium content of the diets was determined by Covance Inc. (Madison, Wis.). Five (5) animals were included in each of the following treatment groups: a diet deficient in selenium (SD); a diet supplemented with selenomethionine (SM, obtained from Sigma, St. Louis, Mo.) such that the final selenium content of the diet was one (1) part per million; a diet supplemented with sodium selenite (SS, Sigma) such that the final concentration of selenium in this diet was one (1) part per million; or a diet supplemented with the yeast selenium SEL-PLEX (SP, Alltech, Lexington, Ky.), such that the final concentration of selenium in this diet was one (1) part per million. SEL-PLEX. Mice were provided with water and their respective diet ad libitum for 100 days. Diets were stored at the dark at 4° C. and fresh diet was added to feeder twice weekly.
Tissue sample preparation and microarray analysis. Mice were killed at 100 days of age by cervical dislocation. For intestinal expression studies, the intestine was flushed twice with saline solution and small intestine was measured and divided in three equal segments. A 3-cm region of the middle segment of the small intestine corresponding to the jejunum (˜300 mg of tissue) was cut and rinsed again with physiological saline to completely remove contents, flash frozen in liquid nitrogen and stored at −80° C. For brain (e.g., cerebral cortex) studies, the cerebral cortex was separated from the surrounding brain tissue and was flash frozen in liquid nitrogen and stored at −80° C. […]

[16] = tested on: CORS-26; assay: Microarray gene expression, mouse cerebral cortex: CORS-26; format: in vivo; settings: diet 1 ppm Se, vs selenium deficient
Excerpt: as §1, §2, §3

[17] = tested on: Prohibitin (Phb); assay: Microarray gene expression, mouse intestine: Phb; format: in vivo; settings: diet 1 ppm Se, vs selenium deficient
Excerpt: as §1, §2, §3

SMILES: C[Se]CC[C@H](N)C(=O)O [SeM, selenomethionine]
- expression of SelR, fold upregulated [1]: not significantly affected
- fold change in expression of Glutathione Peroxidase 3 [2]: 4.6 fold
- expression of selenoprotein N1 (Sepn1), fold increased [3]: not significantly affected
- fold change in expression of Glutathione Peroxidase 1 [4]: 4.9 fold
- Spry2 gene expression, fold reduction [5]: no alteration in expression levels
- Neurog3 expression, fold upregulated [6]: no significant alteration
- FC (fold change) expression of C1qg [7]: 1.0 fold
- body weights of mice [8]: No significant differences
- expression of Lhx8, fold upregulated [9]: not significantly different
- expression of Dio2, fold down-regulation [10]: no ability to alter the expression levels
- fold increase of expression level of Type 1 iodothyronine deiodinase [11]: 2.0 fold
- expression of Selenoprotein W (SelW), fold upregulated [12]: not significantly altered
- expression of TGF-β2 (printed TGF-β), fold upregulated [13]: not altered
- expression of Glo1, fold reduction [14]: not significantly affected
- FC (fold change) expression of Gadd45g [15]: decreased expression
- FC (fold change) expression of Gadd45g ([15]; listed as SM): −1.5 fold
- expression of CORS-26, fold reduction [16]: no alteration in expression levels
- expression of Prohibitin (Phb), fold upregulated [17]: 1.6 fold
